Test results from patent US12234211B2, “Cycloolefin substituted heteroaromatic compounds and their use” (HUTCHISON MEDIPHARMA LIMITED, priority 2017, dated 2025).

Legend:
IDH2-R140Q = target: T1, IDH2-R140Q (Homo sapiens, UniProt P48735, R140Q); experiment: Fluorescent determination of IDH2-R140Q cell activity (2-HG in U87MGR140Q cells); format: cell-based; conditions: 72 hours incubation, read-out: IC50 (2-HG inhibition)
T1 construct: expressed in transfected cells
T1 sequence (P48735 40-452 R140Q): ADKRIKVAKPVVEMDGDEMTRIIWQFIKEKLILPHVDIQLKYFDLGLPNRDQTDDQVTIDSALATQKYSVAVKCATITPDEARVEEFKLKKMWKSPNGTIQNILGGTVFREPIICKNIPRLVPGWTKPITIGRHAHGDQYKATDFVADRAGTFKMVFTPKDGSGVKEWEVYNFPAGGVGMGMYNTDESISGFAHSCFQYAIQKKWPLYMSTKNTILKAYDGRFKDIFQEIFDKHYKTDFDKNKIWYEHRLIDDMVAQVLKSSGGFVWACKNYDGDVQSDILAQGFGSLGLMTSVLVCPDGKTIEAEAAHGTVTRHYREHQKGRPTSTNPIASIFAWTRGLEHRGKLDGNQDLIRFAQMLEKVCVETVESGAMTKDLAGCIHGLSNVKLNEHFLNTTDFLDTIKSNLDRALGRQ

[1] = Metabolic stability test in liver microsomes (mouse); format: in vitro ADME; conditions: percentage of remaining compound after incubation for 30 minutes vs 0 minute; 1 μM compound; 0.5 mg/mL liver microsomes; 37° C.
Procedure: (§1) Male CD1 mouse liver microsomes was supplied by Research Institute for Liver Diseases (Shanghai) Co., Ltd. Male SD rat liver microsomes was supplied by BioreclamationIVT in US.
(§2) Phenacetin, glucose-6-phosphate (G-6-P), glucose-6-phosphate dehydrogenase (G-6-PD), and nicotinamide adenine dinucleotide phosphate (NADP) were supplied by Sigma-Aldrich (Missouri, USA).
(§3) 10 mM stock solution of test compound: Certain amount of test compound was weighed and dissolved in certain volume of dimethylsulfoxide (DMSO) to get the stock solution of test compound at 10 mM.
(§4) Reaction termination solution: Certain amount of phenacetin as internal standard was weighed and dissolved in acetonitrile to get the reaction termination solution at 1000 ng/mL, and stored at room temperature for use.
(§5) The stock solution of test compound was diluted to the designated concentration with organic solution (usually the mixtures of acetonitrile, methanol and water with different portions depending on the compound solution) to make the final concentration to be 1 μM and the contents of organic solvents no more than 1% (For DMSO, the controlled margin was 0.1%) in the final incubation system. 100 mM NADP, 500 mM G-6-P and 100 U/mL G-6-PDH were mixed and diluted with ultrapure water to provide the NADPH regenerating system containing 1 mM NADP, 5 mM G-6-P and 1 U/mL G-6-PD, which was pre-incubated at 37° C. water-bath for 10 min and then cooled on ice until being added into the reaction system. 20 mg/mL liver microsomes was mixed with 200 mM PBS and diluted with ultrapure water to make the concentrations of liver microsomes and PBS to be 0.5 mg/mL and 50 mM in the final incubation system, respectively. After the diluted liver microsomes was mixed with the NADPH regenerating solution, certain volumes of 100 mM EDTA and 300 mM MgCl2 (concentration of EDTA and MgCl2 in the final incubation system is 1 mM and 3 mM, respectively) were added, and the incubation system was put into 37° C. water bath. The incubation was commenced by adding the stock solution of test compound and maintained for 30 min. The incubation was terminated by adding the reaction termination solution. The 0 min sample was prepared by adding the reaction termination solution to the incubation system immediately prior to putting the system into the water bath with the addition of the stock solution of test compound. The terminated incubation mixtures were vortexed and centrifuged at 4400 rpm for 10 min, and the supernatant was collected for LC-MS/MS analysis.
(§6) The concentration of test compound was determined using LC-MS/MS method. Using the peak area ratio of the compound and the internal standard as an index, the percentage of remaining compound after incubation for 30 minutes as compared with the 0 minute sample was calculated, and the metabolic stability of the compound was evaluated.

[2] = Metabolic stability test in liver microsomes (rat); format: in vitro ADME; conditions: percentage of remaining compound after incubation for 30 minutes vs 0 minute; 1 μM compound; 0.5 mg/mL liver microsomes; 37° C.
Procedure: as §1, §2, §3, §4, §5, §6

IDH1-R132H = target: T2, IDH1-R132H (Homo sapiens, UniProt O75874, R132H); experiment: Fluorescent determination of IDH1-R132H cell activity (2-HG in U87MGR132H cells); format: cell-based; conditions: 2-HG inhibition in U87MGR132H cells transfected with IDH1-R132H mutant plasmid
T2 construct: expressed in transfected cells; host or cells: U87MG cells (U87MGR132H)
T2 sequence (O75874 whole entry R132H): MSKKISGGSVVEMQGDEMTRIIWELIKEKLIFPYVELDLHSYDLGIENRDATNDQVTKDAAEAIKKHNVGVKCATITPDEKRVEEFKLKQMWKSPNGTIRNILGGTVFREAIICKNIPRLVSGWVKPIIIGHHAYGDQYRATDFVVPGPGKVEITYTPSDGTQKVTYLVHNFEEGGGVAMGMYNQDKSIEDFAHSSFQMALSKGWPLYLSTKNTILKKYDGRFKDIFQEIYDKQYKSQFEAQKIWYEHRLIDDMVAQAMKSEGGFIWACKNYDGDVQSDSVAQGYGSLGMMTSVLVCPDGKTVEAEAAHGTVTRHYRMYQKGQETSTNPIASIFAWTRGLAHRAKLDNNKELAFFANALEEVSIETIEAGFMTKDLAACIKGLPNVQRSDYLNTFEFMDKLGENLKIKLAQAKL

Row | IC50 (IDH2-R140Q) [µM] | Mouse liver microsome stability [1] [%] | Rat liver microsome stability [2] [%] | IC50 (IDH1-R132H) [µM] | Structure (SMILES)
1 | 0.097 | 83.5 | 73.8 | – | CC(C)Nc1nc(N[C@H](C)C(F)(F)F)nc(C2=C(F)C(O)CCC2)n1 (mixture of isomers) [Compound 1, 2-Fluoro-3-(4-(isopropylamino)-6-(((R)-1,1,1-trifluoropropan-2-yl)amino)-1,3,5-triazin-2-yl)cyclohex-2-en-1-ol]
2 | 0.115 | 76.3 | 70.0 | 0.67 | C[C@@H](Nc1nc(NC2CCC(F)(F)C2)nc(C2=C(F)C(O)CCC2)n1)C(F)(F)F (mixture of isomers) [Compound 6]
3 | 0.087 | 49.8 | 50.3 | 1.5 | C[C@@H](Nc1nc(NC2CCC2)nc(C2=C(F)C(O)CCC2)n1)C(F)(F)F (mixture of isomers) [Compound 7]
4 | 0.11 | 82.7 | 91.5 | 0.219 | [2H]C1(O)CCCC(c2nc(N[C@H](C)C(F)(F)F)nc(N[C@H](C)C(F)(F)F)n2)=C1F (mixture of isomers) [Compound 18]
5 | 0.094 | 95.2 | 100.0 | 0.21 | C[C@@H](Nc1nc(N[C@H](C)C(F)(F)F)nc(C2=C(F)C(O)C(F)(F)CC2)n1)C(F)(F)F (mixture of isomers) [Compound 196]
6 | 0.097 | 99.7 | 98.8 | 0.175 | [2H]C1(O)C(F)=C(c2nc(N[C@H](C)C(F)(F)F)nc(N[C@H](C)C(F)(F)F)n2)CCC1(F)F (mixture of isomers) [Compound 211]
7 | 0.13 | 75.5 | 89.0 | 0.246 | C[C@@H](Nc1nc(N[C@@H]2CCC(F)(F)C2)nc(C2=C(F)C(O)C(F)(F)CC2)n1)C(F)(F)F (mixture of isomers) [Compound 235]
8 | 0.046 | 91.8 | 93.0 | 0.344 | C[C@H](Nc1nc(NC2CC(F)(F)C2)nc(C2=C(F)C(O)C(F)(F)CC2)n1)C(F)(F)F (mixture of isomers) [Compound 239]
9 | 0.137 | 83.8 | 99.0 | 0.365 | C[C@@H](Nc1nc(N[C@H](C)C(F)(F)F)nc(C2=C(F)C(O)CCC2)n1)C(F)(F)F (mixture of isomers) [Compound 2]
10 | 0.08 | 82.1 | 62.9 | 0.75 | CC(Nc1nc(NC2CC(F)(F)C2)nc(C2=C(F)C(O)CCC2)n1)C(F)(F)F (racemic) [Compound 4]
11 | 0.284 | 80.3 | 87.6 | 1.02 | C[C@H](Nc1nc(N[C@H](C)C(F)(F)F)nc(C2=C(F)C(O)CCC2)n1)C(F)(F)F (mixture of isomers) [Compound 11]
12 | 0.058 | 70.5 | 86.6 | – | [2H]C1([2H])CCC(c2nc(NC3CC(F)(F)C3)nc(NC3CC(F)(F)C3)n2)=C(F)C1([2H])O (racemic) [Compound 91]
13 | 0.137 | 44.1 | 74.1 | 0.658 | CC(C)Nc1nc(N[C@H](C)C(F)(F)F)nc(C2=CC(O)CCC2)n1 (mixture of isomers) [Compound 124, 3-(4-(Isopropylamino)-6-(((R)-1,1,1-trifluoropropan-2-yl)amino)-1,3,5-triazin-2-yl)cyclohex-2-en-1-ol]
14 | 0.086 | 58.2 | 79.8 | 0.289 | C[C@@H](Nc1nc(N[C@H](C)C(F)(F)F)nc(C2=CC(O)CCC2)n1)C(F)(F)F (mixture of isomers) [Compound 126]
15 | 0.092 | 15.9 | 34.0 | – | C[C@@H](Nc1nc(NC2CCC2)nc(C2=CC(O)CCC2)n1)C(F)(F)F (mixture of isomers) [Compound 128]
16 | 0.046 | 31.0 | 45.9 | 0.094 | C[C@@H](Nc1nc(NC2CCC(F)(F)C2)nc(C2=CC(O)CCC2)n1)C(F)(F)F (mixture of isomers) [Compound 177]
17 | 0.043 | 80.1 | 74.8 | 0.317 | CC(C)Nc1nc(N[C@H](C)C(F)(F)F)nc(C2=C(F)C(O)C(F)CC2)n1 (single isomer, unassigned) [Compound 95]
18 | 0.344 | 83.7 | 99.2 | 0.254 | C[C@@H](Nc1nc(N[C@H](C)C(F)(F)F)nc(C2=C(F)C(O)C(F)CC2)n1)C(F)(F)F (single isomer, unassigned) [Compound 98]
19 | 0.041 | 98.4 | 99.5 | 0.12 | C[C@@H](Nc1nc(N[C@H](C)C(F)(F)F)nc(C2=C(F)C(O)C(F)(F)CC2)n1)C(F)(F)F (single isomer, unassigned) [Compound 197]
20 | 0.045 | 79.3 | 91.6 | 0.109 | OC1C(F)=C(c2nc(NC3CC(F)(F)C3)nc(NC3CC(F)(F)C3)n2)CCC1F (single isomer, unassigned) [Compound 201]
21 | 0.383 | 96.4 | 94.2 | 1.1 | OC1C(F)=C(c2nc(NC3CC(F)(F)C3)nc(NC3CC(F)(F)C3)n2)CCC1F (single isomer, unassigned) [Compound 202]
22 | 0.048 | 81.4 | 88.8 | 0.081 | C[C@@H](Nc1nc(NC2CC(F)(F)C2)nc(C2=C(F)C(O)C(F)CC2)n1)C(F)(F)F (single isomer, unassigned) [Compound 227]
23 | 0.04 | 76.3 | 86.6 | 0.07 | C[C@@H](Nc1nc(N[C@@H]2CCC(F)(F)C2)nc(C2=C(F)C(O)C(F)CC2)n1)C(F)(F)F (single isomer, unassigned) [Compound 232]
24 | 0.093 | 58.6 | 76.8 | 0.869 | OC1CCCC(c2nc(NC3CC(F)(F)C3)nc(NC3CC(F)(F)C3)n2)=C1F (stereo not drawn) [Compound 5]
25 | 0.083 | 66.2 | 83.8 | 0.421 | [2H]C1(O)CCCC(c2nc(NC3CC(F)(F)C3)nc(NC3CC(F)(F)C3)n2)=C1F (stereo not drawn) [Compound 19]
26 | 0.048 | 78.9 | 67.8 | 0.268 | [2H]C1([2H])CCC(c2nc(NC3CC(F)(F)C3)nc(N[C@@H](C)C(F)(F)F)n2)=C(F)C1O (stereo partly drawn) [Compound 84]
27 | 0.035 | 64.0 | 78.1 | 0.207 | [2H]C1([2H])CCC(c2nc(NC3CC(F)(F)C3)nc(NC3CC(F)(F)C3)n2)=C(F)C1O (stereo not drawn) [Compound 85]
